Among the data in PubChem BioAssay (NCI) are TGI and GI50 values, retold here.

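Protocol summary: plate cells (96-well), add compound at 5 concentrations, incubate 48 h, interpolate endpoints linearly. At the GI50, growth is halved. Definition used: TGI = concentration required for complete inhibition of growth.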

Among the test systems are HS 578T breast; HT29 colon; MCF7 breast; MOLT-4 leukemia; RXF 393 renal; SN12C renal; SNB-75 CNS; A498 renal; SR leukemia; RPMI-8226 leukemia.
Assay in all cases: DTP human tumour cell line panel, 48 h

Consider `CCCO[C@@H]1[C@@H](OC(C)=O)[C@@H](OC(C)=O)C(C)(C)/C=C/[C@H](C)C(=O)[C@@]2(OC(C)=O)C[C@@](C)(OC(C)=O)[C@H](OC(C)=O)[C@@H]2[C@H]2OC(=O)CC[C@@]12OC(=O)c1ccccc1`, for which the TGI in the assay with HS 578T breast, in the assay on HT29 colon, in the assay on MCF7 breast, with MOLT-4 leukemia, with RXF 393 renal and in the assay on SN12C renal was greater than 25 µM throughout. In addition, the concentration for total growth inhibition (TGI) in the assay with SNB-75 CNS was greater than 25 µM.

Take `C(=Nc1ccc2c(c1)Cc1ccccc1-2)c1ccccn1`: the TGI in the assay on A498 renal is greater than 100 µM; in the assay on HS 578T breast it was greater than 100 µM; with HT29 colon it was greater than 100 µM; in the assay on MOLT-4 leukemia, greater than 100 µM; in the assay with RXF 393 renal it was greater than 100 µM; in the assay on SN12C renal, 90.3 µM. Besides, the TGI in the assay with SNB-75 CNS and with SR leukemia was greater than 100 µM in each case.

As for `COc1ccc2c(c1)c(-c1nc(-c3c[nH]c4ncccc34)cs1)cn2CCCCN1CCCCC1`, the GI50 with A498 renal is 1.43 µM; with HS 578T breast, 1.66 µM; with SNB-75 CNS, 1.27 µM. Also, the total growth inhibition concentration (TGI) in the assay on A498 renal amounted to 2.9 µM; in the assay on HS 578T breast, 4.38 µM; in the assay on SNB-75 CNS, 2.68 µM.

For the compound `COc1ccc(/C=N/n2cnc3c(c2=O)SC(=C(C#N)C#N)N3c2ccccc2)cc1`, the TGI with HT29 colon is greater than 100 µM; with MOLT-4 leukemia, greater than 100 µM; in the assay on RPMI-8226 leukemia it was greater than 100 µM; in the assay with SNB-75 CNS it was 72.4 µM; in the assay with SR leukemia it was greater than 100 µM.

Turning to `CCC(=O)OCN(C)c1nc(N(C)COC(=O)CC)nc(N(C)COC(=O)CC)n1`, the total growth inhibition concentration (TGI) in the assay with A498 renal was greater than 100 µM; in the assay with HS 578T breast it was greater than 100 µM; in the assay on HT29 colon, 98.3 µM; in the assay on MCF7 breast, greater than 100 µM; in the assay on MOLT-4 leukemia it was 82.9 µM; in the assay on RPMI-8226 leukemia, 76 µM. Further, the TGI in the assay on RXF 393 renal is 25.5 µM; in the assay with SN12C renal, greater than 100 µM; in the assay with SNB-75 CNS it was greater than 100 µM; with SR leukemia it was 71 µM.

On to `O=C1c2ccccc2OCC12OC21C=CC(Cl)=CC1` (configuration not stated), for which the TGI in the assay with A498 renal was 55 µM; in the assay with HT29 colon, 36.5 µM; in the assay on MCF7 breast, greater than 100 µM; in the assay on MOLT-4 leukemia it was 23.5 µM; in the assay on RPMI-8226 leukemia, 47.4 µM; in the assay on RXF 393 renal, 46.8 µM. For the same compound, the results for the concentration for total growth inhibition (TGI) with SN12C renal and in the assay on SR leukemia were 35.3 µM and 17.5 µM, respectively.

Consider `CCCCC1C=Cn2c(=O)oc3c(OC(C)C)c(C)c(O)c1c32` (configuration not stated), for which the concentration for total growth inhibition (TGI) is 1.1 µM in the assay on A498 renal; 14.3 µM in the assay with HS 578T breast; 11.7 µM in the assay with HT29 colon; 1.81 µM in the assay with MCF7 breast; 3.33 µM in the assay on MOLT-4 leukemia; 11.8 µM in the assay on RPMI-8226 leukemia. Further, the TGI in the assay on SN12C renal came out at 3.71 µM; in the assay on SNB-75 CNS, 4.83 µM; in the assay on SR leukemia, 6.17 µM.

In the case of `Nc1nc(SCc2ccccc2Cl)c2[nH]cnc2n1`, the concentration for total growth inhibition (TGI) with A498 renal was 73.1 µM; with MOLT-4 leukemia it was greater than 100 µM; in the assay on RPMI-8226 leukemia, greater than 100 µM; with RXF 393 renal it was greater than 100 µM; with SN12C renal, greater than 100 µM; in the assay on SR leukemia, greater than 100 µM.

Consider `CCOC(=O)c1sc2nc(SC)nc(Nc3ccc4c(c3)OCCO4)c2c1N`, for which the TGI is 27.4 µM in the assay on A498 renal; 53.3 µM in the assay with HT29 colon; 23.6 µM in the assay with MCF7 breast; greater than 100 µM with MOLT-4 leukemia; 77.1 µM with RPMI-8226 leukemia; 16.9 µM in the assay on RXF 393 renal. In addition, the TGI in the assay with SN12C renal is 29.9 µM; in the assay with SR leukemia, greater than 100 µM.

`O=C(CBr)c1ccc2cc(Br)c3ccccc3c2c1`: the total growth inhibition concentration (TGI) in the assay on HS 578T breast is 59.6 µM; in the assay on HT29 colon, greater than 100 µM; with MCF7 breast, 73.8 µM; with MOLT-4 leukemia, 37 µM; with RPMI-8226 leukemia, greater than 100 µM; in the assay on RXF 393 renal, 38.7 µM. For the same compound, the concentration for total growth inhibition (TGI) was determined as 72.8 µM in the assay with SNB-75 CNS and 46.3 µM with SR leukemia.

Take `C=CCCC1(C)CCCNC1=S` (configuration not stated): the total growth inhibition concentration (TGI) with A498 renal, in the assay with HT29 colon, in the assay with MOLT-4 leukemia, with RPMI-8226 leukemia, with RXF 393 renal and with SN12C renal was greater than 100 µM each time. Also, the TGI in the assay on SNB-75 CNS and in the assay on SR leukemia was greater than 100 µM throughout.

Take `CCCn1cnc2c(SCc3ccc(Cl)cc3)nc(N)nc21`: the total growth inhibition concentration (TGI) in the assay with A498 renal is 49.1 µM; in the assay on HS 578T breast, greater than 100 µM; in the assay on HT29 colon it was 43.5 µM; in the assay with MCF7 breast, greater than 100 µM; with RPMI-8226 leukemia, 40.2 µM; with RXF 393 renal, greater than 100 µM. The TGI with SN12C renal stood at 83.3 µM; in the assay on SNB-75 CNS it was 88.7 µM; with SR leukemia it was 34.8 µM.

As to `O=C(N[C@@H](Cc1coc2ccccc12)B(O)O)[C@@H]1C[C@H]2CC[C@@H]1O2`, the GI50 is 0.702 µM in the assay with A498 renal; 3.81 µM in the assay on HS 578T breast; 3.77 µM in the assay on HT29 colon; 3.25 µM in the assay on MCF7 breast; 2.96 µM in the assay on MOLT-4 leukemia; 0.45 µM in the assay on RPMI-8226 leukemia. The GI50 in the assay with RXF 393 renal was 1.86 µM; with SN12C renal, 9.24 µM; in the assay with SNB-75 CNS, 2.78 µM; in the assay on SR leukemia, 1.26 µM. Also, the TGI is 5.73 µM in the assay on A498 renal; 66.6 µM in the assay with HS 578T breast; greater than 100 µM in the assay on HT29 colon; greater than 100 µM in the assay with MCF7 breast; 48 µM with MOLT-4 leukemia; 5.2 µM in the assay on RPMI-8226 leukemia. The TGI with RXF 393 renal is 5.94 µM; in the assay on SN12C renal it was greater than 100 µM; in the assay on SNB-75 CNS it was 38.2 µM; in the assay on SR leukemia it was greater than 100 µM.
